In patent US7928106B2, “Aza-pyridopyrimidinone derivatives” (Hoffmann-La Roche Inc., priority 2007, dated 2011):

Target: T1, HM74A receptor (Homo sapiens, UniProt Q8TDS4)
T1 construct: expressed in transfected cells; host or cells: HEK-293 cells (stably transfected), membrane preparation
Assay: Primary radiolabelled ligand competition binding assay ([3H]-nicotinic acid)
Details: inhibition of [3H]-nicotinic acid binding, membranes of HEK-293 cells stably transfected with the HM74A receptor
Procedure: Primary Radiolabelled Ligand Competition Binding Assay
Nicotinic acid binding assays were performed with membrane preparations. A cell pellet containing 1×10^8 HEK-293 cells, stably transfected with the HM74A receptor, was resuspended in 3 ml of ice cold Dounce Buffer (10 mM Tris-Cl pH 7.6, 0.5 mM MgCl2) supplemented with Roche protease inhibitor cocktail and homogenized at high speed on a Polytron homogenizer two times for 20 sec on ice. Nuclei and unbroken cells were removed by centrifugation for 5 min at 1,000×g after the addition of 1 ml of tonicity restoration buffer (10 mM Tris pH 7.6, 0.5 mM MgCl2, 600 mM NaCl). The homogenate was centrifuged at 60,000×g for 30 min and pellets were resuspended in Tris buffer (50 mM Tris pH 7.4, containing protease inhibitors). Binding reactions contained 20 µg membranes as determined by BCA protein assay (Pierce), 50 nM [^3H]-nicotinic acid (Amersham) with or without compound addition in 250 μl of binding buffer (50 mM Tris pH 7.4, 2 mM MgCl2, 0.02% CHAPS). […] Bound [^3H]-nicotinic acid was determined by scintillation counting using Top Count NXT (PerkinElmer). […] The effects of compounds were expressed as % inhibition of [^3H]-nicotinic acid binding. Sigmoidal curves were fitted using the XLfit3 program (ID Business Solutions Ltd. UK) and IC50 values determined.

T1 sequence (Q8TDS4 whole entry): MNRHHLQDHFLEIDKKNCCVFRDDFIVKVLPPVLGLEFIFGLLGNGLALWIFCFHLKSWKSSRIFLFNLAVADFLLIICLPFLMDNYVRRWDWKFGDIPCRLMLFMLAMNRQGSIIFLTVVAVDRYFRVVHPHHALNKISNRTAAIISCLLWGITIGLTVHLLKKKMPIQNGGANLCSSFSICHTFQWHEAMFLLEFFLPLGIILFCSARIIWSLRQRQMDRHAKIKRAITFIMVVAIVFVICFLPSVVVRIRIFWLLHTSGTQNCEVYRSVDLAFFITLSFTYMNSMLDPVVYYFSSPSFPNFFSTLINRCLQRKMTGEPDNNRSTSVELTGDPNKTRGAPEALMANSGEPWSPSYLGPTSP

| Structure (SMILES) | IC50 |
| --- | --- |
| O=c1[nH]c(COCCc2cc(F)ccc2F)nc2nccnc12 [Example 2, 2-[2-(2,5-Difluoro-phenyl)-ethoxymethyl]-3H-pteridin-4-one] | 2.39 µM |
| O=c1[nH]c(COCCc2cccc(Cl)c2)nc2nnccc12 [Example 7, 7-[2-(3-Chloro-phenyl)-ethoxymethyl]-6H-pyrimido[4,5-c]pyridazin-5-one] | 0.668 µM |
